The numbers were not newly measured in article PMC9186412, “Rational Framework for the Design of Trp- and Arg-Rich Peptide Antibiotics Against Multidrug-Resistant Bacteria” (Frontiers in Microbiology, 2022), which cites them from elsewhere.

Read-outs that look alike come from different tables or passages of the source.

This data set relates to CDC AR isolates. Also on record: key: S (green), susceptible; I (blue), intermediate; R (red), resistant. The settings on record: data provided by the CDC, ref CDC, cited from earlier work. The source says:
Supplement Table_3.XLSX, sheet "CDC AR isolates profiles" | column: G(-) strains

The mark [1] stands for this setting: Acinetobacter baumannii AB273, CDC AR isolate.
The mark [2] stands for this setting: Acinetobacter baumannii AB274, CDC AR isolate.
The mark [3] stands for this setting: Acinetobacter baumannii AB275, CDC AR isolate.
Setting [4] is: Acinetobacter baumannii AB276, CDC AR isolate.
The mark [5] stands for this setting: Enterobacter cloacae E62, CDC AR isolate.
Setting [6] is: Enterobacter cloacae E544, CDC AR isolate.
The mark [7] stands for this setting: Enterobacter cloacae E545, CDC AR isolate.
Setting [8] is: Enterobacter cloacae E546, CDC AR isolate.
[9] abbreviates: Escherichia coli EC541, CDC AR isolate.
[10] abbreviates: Escherichia coli EC543, CDC AR isolate.
The mark [11] stands for this setting: Escherichia coli EC544, CDC AR isolate.
Where [12] appears, read: Escherichia coli EC549, CDC AR isolate.
The mark [13] stands for this setting: Klebsiella pneumoniae KP542, CDC AR isolate.
Setting [14] is: Klebsiella pneumoniae KP548, CDC AR isolate.
Setting [15] is: Klebsiella pneumoniae KP550, CDC AR isolate.
Setting [16] is: Klebsiella pneumoniae KP552, CDC AR isolate.
[17] abbreviates: Pseudomonas aeruginosa PA229, CDC AR isolate.
Where [18] appears, read: Pseudomonas aeruginosa PA230, CDC AR isolate.
The mark [19] stands for this setting: Pseudomonas aeruginosa PA231, CDC AR isolate.
[20] abbreviates: Pseudomonas aeruginosa PA232, CDC AR isolate.
The mark [21] stands for this setting: Pseudomonas aeruginosa PA239, CDC AR isolate.

In the case of `NCC[C@H](O)C(=O)N[C@@H]1C[C@H](N)[C@@H](O[C@H]2O[C@H](CN)[C@@H](O)[C@H](O)[C@H]2O)[C@H](O)[C@H]1O[C@H]1O[C@H](CO)[C@@H](O)[C@H](N)[C@H]1O` [Amikacin], the Antibiotic susceptibility profile entry under setting [1] is “R”; the Antibiotic susceptibility profile entry under setting [2] is given as “S”; the Antibiotic susceptibility profile entry under setting [3] is given as “R”; the Antibiotic susceptibility profile result under setting [4] was “I”; the Antibiotic susceptibility profile result under setting [5] was “S”; the Antibiotic susceptibility profile result under setting [6] is given as “S”. Besides, the Antibiotic susceptibility profile result reads like this: under setting [7], “S”; under setting [8], “R”; under setting [9], “R”; under setting [10], “S”; under setting [11], “S”; under setting [12], “S”. The Antibiotic susceptibility profile entry under setting [13] is reported as “R”; the Antibiotic susceptibility profile entry under setting [14] is on record as “S”; the Antibiotic susceptibility profile entry under setting [15] is listed as “S”; the Antibiotic susceptibility profile entry under setting [16] is given as “S”; the Antibiotic susceptibility profile result under setting [17] is listed as “S”; the Antibiotic susceptibility profile entry under setting [18] was “R”. For the same compound, the Antibiotic susceptibility profile result is reported as “S” under setting [19], “S” under setting [20] and “R” under setting [21].

Take `CO/N=C(\C(=O)N[C@@H]1C(=O)N2C(C(=O)O)=C(CSc3nc(=O)c(=O)[nH]n3C)CS[C@H]12)c1csc(N)n1` [Ceftriaxone]: the Antibiotic susceptibility profile entry is “R” under setting [1]; “R” under setting [2]; “R” under setting [3]; “R” under setting [4]; “R” under setting [5]; “R” under setting [6]. In addition, the Antibiotic susceptibility profile entry runs as follows: under setting [7], “R”; under setting [8], “R”; under setting [9], “R”; under setting [10], “R”; under setting [11], “R”; under setting [12], “R”. For the same compound, the Antibiotic susceptibility profile entry was “R” under setting [13], “R” under setting [14], “R” under setting [15] and “R” under setting [16].

As for `CN(C)c1ccc(O)c2c1C[C@H]1C[C@H]3[C@H](N(C)C)C(O)=C(C(N)=O)C(=O)[C@@]3(O)C(O)=C1C2=O` [Minocycline], the Antibiotic susceptibility profile entry is reported as “I” under setting [1], “I” under setting [2], “I” under setting [3] and “S” under setting [4].

For `C[C@@H](O)[C@H]1C(=O)N2C(C(=O)O)=C(SCCN=CN)C[C@H]12` [Imipenem], the Antibiotic susceptibility profile result under setting [1] is on record as “R”; the Antibiotic susceptibility profile result under setting [2] is “R”; the Antibiotic susceptibility profile entry under setting [3] is on record as “R”; the Antibiotic susceptibility profile entry under setting [4] is reported as “S”; the Antibiotic susceptibility profile entry under setting [5] is listed as “S”; the Antibiotic susceptibility profile result under setting [6] was “R”. The Antibiotic susceptibility profile result was “I” under setting [7]; “R” under setting [8]; “I” under setting [9]; “S” under setting [10]; “R” under setting [11]; “I” under setting [12]. Further, the Antibiotic susceptibility profile result reads like this: under setting [13], “I”; under setting [14], “R”; under setting [15], “R”; under setting [16], “R”; under setting [17], “R”; under setting [18], “R”. The Antibiotic susceptibility profile entry is given as “R” under setting [19], “R” under setting [20] and “R” under setting [21].

Take `CO/N=C(\C(=O)N[C@@H]1C(=O)N2C(C(=O)[O-])=C(C[N+]3(C)CCCC3)CS[C@H]12)c1csc(N)n1` [Cefepime]: the Antibiotic susceptibility profile result under setting [1] is reported as “R”; the Antibiotic susceptibility profile entry under setting [2] is “R”; the Antibiotic susceptibility profile result under setting [3] is on record as “R”; the Antibiotic susceptibility profile result under setting [4] was “R”; the Antibiotic susceptibility profile result under setting [5] is listed as “S”; the Antibiotic susceptibility profile result under setting [6] is “R”. In addition, the Antibiotic susceptibility profile entry under setting [7] is reported as “R”; the Antibiotic susceptibility profile entry under setting [8] was “R”; the Antibiotic susceptibility profile entry under setting [9] was “R”; the Antibiotic susceptibility profile result under setting [10] was “R”; the Antibiotic susceptibility profile entry under setting [11] is on record as “R”; the Antibiotic susceptibility profile entry under setting [12] was “R”. Also, the Antibiotic susceptibility profile entry under setting [13] was “R”; the Antibiotic susceptibility profile entry under setting [14] was “R”; the Antibiotic susceptibility profile entry under setting [15] is given as “R”; the Antibiotic susceptibility profile result under setting [16] was “R”; the Antibiotic susceptibility profile result under setting [17] is reported as “R”; the Antibiotic susceptibility profile entry under setting [18] was “R”. Further, the Antibiotic susceptibility profile entry under setting [19] is reported as “R”, the Antibiotic susceptibility profile result under setting [20] is recorded as “S” and the Antibiotic susceptibility profile entry under setting [21] is on record as “R”.

On to `CCN1CCN(C(=O)N[C@@H](C(=O)N[C@@H]2C(=O)N3[C@@H]2SC(C)(C)[C@@H]3C(=O)O)c2ccccc2)C(=O)C1=O` [Piperacillin], for which the Antibiotic susceptibility profile entry is “R” under setting [1]; “R” under setting [2]; “R” under setting [3]; “R” under setting [4]; “R” under setting [17]; “R” under setting [18]. Also, the Antibiotic susceptibility profile entry runs as follows: under setting [19], “R”; under setting [20], “S”; under setting [21], “R”.

Consider `CN(C)c1cc(NC(=O)CNC(C)(C)C)c(O)c2c1C[C@H]1C[C@H]3[C@H](N(C)C)C(O)=C(C(N)=O)C(=O)[C@@]3(O)C(O)=C1C2=O` [Tigecycline], for which the Antibiotic susceptibility profile result under setting [5] is reported as “S”; the Antibiotic susceptibility profile result under setting [6] is “R”; the Antibiotic susceptibility profile result under setting [7] is “R”; the Antibiotic susceptibility profile result under setting [8] is “S”; the Antibiotic susceptibility profile result under setting [9] is “S”; the Antibiotic susceptibility profile result under setting [10] is on record as “S”. The Antibiotic susceptibility profile result under setting [11] is recorded as “S”; the Antibiotic susceptibility profile entry under setting [12] was “S”; the Antibiotic susceptibility profile entry under setting [13] is “S”; the Antibiotic susceptibility profile result under setting [14] is listed as “I”; the Antibiotic susceptibility profile result under setting [15] is on record as “S”; the Antibiotic susceptibility profile entry under setting [16] was “S”.

`C/C(=C\C(=O)OCCCCCCCCC(=O)O)C[C@@H]1OC[C@H](C[C@@H]2O[C@H]2[C@@H](C)[C@H](C)O)[C@@H](O)[C@H]1O` [Mupirocin]: the Antibiotic susceptibility profile result (Staphylococcus aureus SA561, CDC AR isolate) is “R”.

Take `C[C@@H](O)[C@H]1C(=O)N2C(C(=O)O)=C(S[C@@H]3CN[C@H](C(=O)Nc4cccc(C(=O)O)c4)C3)[C@H](C)[C@H]12` [Ertapenem]: the Antibiotic susceptibility profile result is, setting by setting: under setting [5], “S”; under setting [7], “S”; under setting [9], “I”; under setting [10], “R”; under setting [11], “R”; under setting [12], “R”. Moreover, the Antibiotic susceptibility profile result under setting [13] is “R”, the Antibiotic susceptibility profile entry under setting [14] is reported as “R”, the Antibiotic susceptibility profile entry under setting [15] is “R” and the Antibiotic susceptibility profile entry under setting [16] is recorded as “R”.

For the compound `C[C@H]1[C@H](NC(=O)/C(=N\OC(C)(C)C(=O)O)c2csc(N)n2)C(=O)N1S(=O)(=O)O` [Azreonam], the Antibiotic susceptibility profile result is “R” under setting [9]; “R” under setting [10]; “R” under setting [11]; “R” under setting [12]; “R” under setting [13]; “R” under setting [14]. In addition, the Antibiotic susceptibility profile entry is reported as “R” under setting [15]; “R” under setting [16]; “R” under setting [17]; “S” under setting [18]; “R” under setting [19]; “S” under setting [20]. Besides, the Antibiotic susceptibility profile entry under setting [21] is reported as “R”.

As to `O=C(O)c1cn(C2CC2)c2cc(N3CCNCC3)c(F)cc2c1=O` [Ciprofloxacin], the Antibiotic susceptibility profile entry under setting [1] was “R”; the Antibiotic susceptibility profile result under setting [2] is “R”; the Antibiotic susceptibility profile entry under setting [3] is recorded as “R”; the Antibiotic susceptibility profile entry under setting [4] is recorded as “R”; the Antibiotic susceptibility profile result under setting [17] is “R”; the Antibiotic susceptibility profile result under setting [18] was “R”. Also, the Antibiotic susceptibility profile result was “R” under setting [19], “R” under setting [20] and “R” under setting [21].
